This is an account of results in ChEMBL document CHEMBL3507680, “University of Dundee, Gates Library screen for HepG2 cell viability”.

This data set can be described thus: Human HepG2 cell viability assay in 384 well format. Format: toxicity, cell-based. Set-up: dose 125 nL, time 70.5 hour; cytotoxicity at 70.5 h: concentration not given beside the values. As to conditions: HepG2 cells, read-out: Inhibition.

Consider `COc1ccc(C(=O)C2CCCN(Cc3ccon3)C2)c(OC)c1` (stereo not given), for which the cytotoxicity at 70.5 h was -10.4%. On to `CCCn1ccnc1CN1C[C@@H](NC(C)=O)[C@H](c2ccc(OC)cc2)C1`, for which the cytotoxicity at 70.5 h stood at 15.8%. In the case of `CCOc1ccc(OCc2nccc(-c3cc(C(=O)O)ccn3)n2)cc1` it was 16%; in that of `O=C(Nc1ccccc1OCCc1ccccn1)NC1CCOCC1`, 18.2%; in that of `NC(=O)c1cc2c(nc1N1C[C@H]3OC(=O)N(C4CCCC4)[C@H]3C1)CCC2`, -10.7%. For the compound `Cc1nn(-c2ccccc2)c(C)c1-c1ccnc(N2CCCOCC2)n1`, the cytotoxicity at 70.5 h was -3.17%. In the case of `CS(=O)(=O)N[C@H]1CN(C(=O)CCc2ccc(=O)[nH]n2)C[C@@H]1C1CC1` it was -7.22%; in that of `CN(CCSc1ccccc1)C(=O)c1cn2c(n1)CNCC2`, -12.8%; in that of `Cc1ccc(-c2ccnc(NCC(O)c3ccc(O)cc3)n2)c(C)n1` (stereo not given), -4.44%. `Cc1nc(O)cc(CCNc2nc(N(C)C)nc(C)c2C)n1`: the cytotoxicity at 70.5 h turned out to be 22%. Turning to `CNC(=O)Cc1ccc(-n2ccnc2-c2ccc(C(=O)O)s2)cc1`, the cytotoxicity at 70.5 h was -5.64%. `CNC(=O)C(C)(C)NC(=O)c1cc(COc2ccccc2OC)[nH]n1`: the cytotoxicity at 70.5 h is -8.56%. Then `O=C1NC[C@@]2(C(=O)O)CN(Cc3cccc(CN4CCOCC4)c3)C[C@@H]12`, with 1.62%; and `CN(CC1CCCCO1)c1nncc(-c2cccc(F)c2)n1` (stereo not given), with -3.62%.

Turning to `CCCOCC(=O)N1CCc2nc(NC)nc(C(=O)N3CCCC3)c2C1`, the cytotoxicity at 70.5 h is -4.23%.

Consider `CN[C@@H](CO)C(=O)NCc1cc2n(n1)CCCN(C1CCCCC1)C2`, for which the cytotoxicity at 70.5 h is -6.96%. In the case of `CC(C)(C)n1ccc(C(=O)N2CCCC(c3ncc[nH]3)C2)c1` (stereo not given), the cytotoxicity at 70.5 h was -1.92%. As to `Cc1ncsc1CN(Cc1ccccc1)Cc1ccncc1`, the cytotoxicity at 70.5 h was found to be 8.23%. Regarding `Cc1ccccc1CS(=O)(=O)NCCCN1CCCC1`, the cytotoxicity at 70.5 h was -2.2%. Take `CCOc1ccccc1-n1c(C2CC(=O)N(C)C2)n[nH]c1=O` (stereo not given): the cytotoxicity at 70.5 h is -25.4%. Then `CCn1ncnc1C(C)Nc1cc(C2CC2)ncn1` (stereo not given), with -13%. On to `COc1cc(C(N)=O)c(N(C)S(C)(=O)=O)cc1OC`, for which the cytotoxicity at 70.5 h was -9.06%. For the compound `O=C(c1ccc(O)c(Cl)c1)N1C[C@@H](CN2CCCCCC2)[C@@H](CO)C1`, the cytotoxicity at 70.5 h came to 3.21%. For `O=C1CCCCN1CCc1nc(-c2cccnn2)no1`, the cytotoxicity at 70.5 h is -2.5%.

Regarding `Cc1c(C(=O)N2CCC(N3CCCCC3)CC2)n(C)c2ccc(Cl)cc12`, the cytotoxicity at 70.5 h is -0.949%. Regarding `Cc1ccc(C)c(OC(C)C(=O)Nc2cccnc2)c1` (stereo not given), the cytotoxicity at 70.5 h is -3.32%. As to `Cc1ncsc1CCNC(=O)Cn1nc(C)n(Cc2ccccc2)c1=O`, the cytotoxicity at 70.5 h is -2.97%.

For `CSCc1noc(Cn2ccc3ccccc3c2=O)n1`, the cytotoxicity at 70.5 h is -10.8%. Then `CC(C)Cc1ncc2c(n1)CN(c1nc3ccccc3cc1CO)C2`, with -14.3%; and `c1ccc(CN2CCC(NCCSc3cnn[nH]3)C2)cc1` (stereo not given), with -3.66%; and `COc1ccc(NC2CCCN(Cc3cnc(N(C)C)s3)C2)cc1` (stereo not given), with -6.11%. `COc1cccc(-c2cc(C(=O)NCCn3nc(C)nc3C)[nH]n2)c1`: the cytotoxicity at 70.5 h was -7.22%. Take `O=C(Cc1nc(-c2ccncc2)n[nH]1)N1CCOCC1`: the cytotoxicity at 70.5 h is -14.8%. As to `CC(C)CN1CCc2[nH]cnc2C12CCN(C(=O)c1cnn(C)c1)CC2`, the cytotoxicity at 70.5 h is -7.51%. Consider `COCCN(Cc1ccccc1C)c1nc(C)nc2oc(C)nc12`, for which the cytotoxicity at 70.5 h was determined as 0.842%. For the compound `Cc1ccc(CN2CCN(c3nc4c(s3)c(C)nn4C)C(C)C2=O)cc1` (stereo not given), the cytotoxicity at 70.5 h is 31.2%.

`Cc1cc(-c2cncnc2)ccc1OCC(N)=O`: the cytotoxicity at 70.5 h was 13.6%.

With `CCOc1ccc(C(=O)NC2CC2)cc1C`, the cytotoxicity at 70.5 h is -7.46%.

Turning to `COCCCNC(=O)Cc1nc(-c2ccncc2)n[nH]1`, the cytotoxicity at 70.5 h was -1.85%.

For `COCCN1CCCC2(CCN(c3ncnc(C)c3C)C2)C1=O` (stereo not given), the cytotoxicity at 70.5 h was found to be 15.5%.

Turning to `CCNC(=O)c1cc(OC)c(OC)cc1N(C)S(C)(=O)=O`, the cytotoxicity at 70.5 h was -8.66%. `COc1ccc(F)c(-c2cc(NCCO)nc(N)n2)c1`: the cytotoxicity at 70.5 h was -3.97%. For the compound `CC(=O)N[C@@H]1CN(C(=O)c2cc3ccccc3[nH]2)C[C@H]1c1ccc(C)o1`, the cytotoxicity at 70.5 h was -9.58%.

Turning to `Cc1ccccc1N1CCCN(C(=O)CC2CN(C(C)C)CCO2)CC1` (stereo not given), the cytotoxicity at 70.5 h was 0.214%.

Regarding `COc1cccc2c1OCC(C(=O)N1CCC(NS(C)(=O)=O)CC1)C2` (stereo not given), the cytotoxicity at 70.5 h was -7.91%.

Turning to `COc1ccccc1[C@@H]1CN(CC(=O)N2CCCCC2)C[C@H]1C(=O)O`, the cytotoxicity at 70.5 h is -7.8%. For the compound `O=C(c1cnn2cc(CCO)cnc12)N1CCOC(C(F)(F)F)C1` (stereo not given), the cytotoxicity at 70.5 h was -13%. Consider `CCNc1ncc(C(=O)NCCc2csc(CSC)n2)cn1`, for which the cytotoxicity at 70.5 h was -4.44%. Turning to `O=C(Nc1ccccc1)N1C[C@H]2CC[C@@H]1CN(Cc1ccccc1)C2`, the cytotoxicity at 70.5 h was -4.8%.

Turning to `Cc1cc(N2CCN(C(=O)C(C)n3ccnc3C(C)C)CC2)cc(C)n1` (stereo not given), the cytotoxicity at 70.5 h was -4.34%.

Turning to `CCc1ncc(C(=O)N2CCCC(c3nccn3CCOC)C2)cn1` (stereo not given), the cytotoxicity at 70.5 h is -0.318%. Take `COC(=O)N1CCCCC1C(=O)N1CCN(c2cccnc2)CC1` (stereo not given): the cytotoxicity at 70.5 h was determined as 6.34%. For `OCc1csc(N2CCN(Cc3cccc(F)c3)CC2)n1`, the cytotoxicity at 70.5 h stood at 22.2%. For the compound `CCNc1ncc(CN2C[C@@H](C(=O)O)[C@H](C3CC3)C2)cn1`, the cytotoxicity at 70.5 h is -7.25%. As for `CCn1c(CN2CCCC2)nnc1C1CCN(S(=O)(=O)CC)CC1`, the cytotoxicity at 70.5 h was -2.53%.

Regarding `CC1Oc2ccc(S(=O)(=O)NCCCn3ccnc3)cc2NC1=O` (stereo not given), the cytotoxicity at 70.5 h is -3.81%. `CNS(=O)(=O)c1ccsc1C(=O)OC`: the cytotoxicity at 70.5 h is -5.92%.

For the compound `CNC(=O)C1CC(=O)N(c2cccc(F)c2)C1` (stereo not given), the cytotoxicity at 70.5 h is -3.04%. In the case of `CS(=O)(=O)N1CCC(c2nnc(Cn3ccnc3)n2C2CC2)CC1`, the cytotoxicity at 70.5 h was -3.52%. In the case of `CCCN(CCOC)c1nc(C)nc2sccc12` it was 13.4%; in that of `COc1ccc(OC)c(C2CCN(C(=O)[C@H]3CC[C@@H](O)CC3)C2)c1` (stereo not given in full), -9.68%. As for `CCOc1cccc(C(C(=O)O)N(C)Cc2cc(C)no2)c1` (stereo not given), the cytotoxicity at 70.5 h is -9.85%. In the case of `O=C(Cc1n[nH]c(-c2cncc(Br)c2)n1)NCc1cccnc1` it was -9.48%. Consider `CN(C)C[C@@H]1CN(C(=O)c2cc(F)ccc2F)C[C@@H]1CO`, for which the cytotoxicity at 70.5 h was -5.47%. Then `CN1CCC2(CC1)CN(C(=O)c1onc3ccccc13)CCCN2C`, with 26.8%. Regarding `CCNC(=O)[C@@H]1C[C@H](N)CN1C(=O)CCc1ccccc1Cl`, the cytotoxicity at 70.5 h was -4.67%. Turning to `CN(C)CC1(O)CCN(C(=O)Cc2ccc(Cl)c(Cl)c2)C1` (stereo not given), the cytotoxicity at 70.5 h came out at 10.5%. For the compound `CCN(Cc1ccoc1)Cc1nc(COC)no1`, the cytotoxicity at 70.5 h is -7.42%. Take `Cc1ccccc1CSc1nc(N)cc(N2CCCC(O)C2)n1` (stereo not given): the cytotoxicity at 70.5 h is 0.482%. On to `O=S(=O)(Nc1ccc2c(c1)OCCO2)N1CCCCC1`, for which the cytotoxicity at 70.5 h is -0.954%.
